Where two headings read alike, the source gives them in different places.
Columns and labels:
HIV-1NL4-3 = assay: HIV-1 infectivity assay in TZM-bl reporter cell line (LTR-luciferase, 48 h); type: cell-based; settings: for inhibition at 1 µM: Human immunodeficiency virus 1, TZM-bl
Summary of the method: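 Compounds were tested at 1 μM in TZM-bl cells infected with HIV-1NL4-3. Infectivity was read as luciferase signal 48 h after infection and expressed as percent inhibition, normalized between DMSO-treated wild-type infection (0%) and DMSO-treated Nef-defective HIV-1 infection (100% of the Nef-dependent effect).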

TZM-bl cell line = type: cell-based; settings: 1 μM
Summary of the method: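 TZM-bl cells (HIV-1 LTR-luciferase) infected with HIV-1NL4-3 with compound at 1 μM; luciferase read 48 h later. Percent inhibition normalized to DMSO wild-type infection (0%) and Nef-defective HIV-1 infection (100% of Nef-dependent effect). Viability in uninfected TZM-bl cells by Cell Titer Blue.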

HIV-1 NefNL4-3 = HIV-1 NefNL4-3 (Human immunodeficiency virus type 1 group M subtype B, UniProt P03406, A33V/T15A/T51N/V11I); assay: Surface plasmon resonance binding to recombinant full-length Nef (NL4-3); settings: for RU30/RUNef (extent of binding): response units at 30 μM relative to Nef immobilized on the SPR chip
[1] = 1.0 μM, TZM-bl reporter cell line, Table 4, read-out: % Infectivity Inhibition
[2] = 48 h, Table 1, TZM-bl cells, 1 μM, 48 h, 100% = Nef-defective HIV-1, read-out: HIV-1 Infectivity % Inhibition Norm. to Δ-Nef @ 1 μM
[3] = KD, M, Table 4, SPR fit 2-step induced fit, KD = koff/kon × koff2/(koff2 + kon2)
[4] = Nef NL4-3 Binding, SPR 2-state fitting KD, Table 1, 2-step induced-fit model
[5] = Table 4, 2-step induced fit, T = 1/koff2
[6] = read-out: Nef NL4-3 Binding, SPR 1:1 or 2-site fitting KD2, Table 1, 2-site fit, second component
[7] = 48 h, Table 2, TZM-bl cells, 1 μM, 48 h, 100% = Nef-defective HIV-1, read-out: HIV-1 Infectivity % Inhibition Norm. to Δ-Nef @ 1 μM
[8] = Table 2, 1:1 Langmuir fit where the KD2 cell says '1 to 1 fitting', else 2-site fit
[9] = KD, M, Table 4, SPR fit 1:1 Langmuir, KD = koff/kon
[10] = Table 4, 1:1 Langmuir fit, T = 1/koff

Compound | inhibition at 1 µM (HIV-1NL4-3; [2]) | Percent Viability @ 1 μM (TZM-bl cells) (TZM-bl cell line; human) | Kd (HIV-1 NefNL4-3) | inhibition at 1 µM (HIV-1NL4-3; [7]) | Nef NL4-3 Binding, SPR 1:1 or 2-site fitting KD1 (HIV-1 NefNL4-3; [8]) | other results
Oc1c(CCC2CCNCC2)c(-c2ccc(C(F)(F)F)cc2)nn1-c1nc2ccccc2[nH]1 [Compound I-552, 1-(1H-1,3-benzodiazol-2-yl)-4-[2-(piperidin-4-yl)ethyl]-3-[4-(trifluoromethyl)phenyl]-1H-pyrazol-5-ol] | 50.5% | 91.4% | 554 nM | – | – | inhibition at 1 µM (HIV-1NL4-3; [1]): 50.5%; % Cell Viability (TZM-bl cell line; human): 91.4%; Kd (HIV-1 NefNL4-3; [3]): 1040 nM; Kd (HIV-1 NefNL4-3; [4]): 749 nM; T, minutes (residence time) (HIV-1 NefNL4-3; [5]): 2.17E + 01 minutes; Kd (HIV-1 NefNL4-3; [6]): 16500 nM; RU30/RUNef (extent of binding) (HIV-1 NefNL4-3): 1.04E- 02
Oc1c(CCc2ccc(F)cc2)c(CC2CCNCC2)nn1-c1nc2ccccc2[nH]1 [Compound I-553, 1-(1H-1,3-benzodiazol-2-yl)-4-[2-(4-fluorophenyl)ethyl]-3-[(piperidin-4-yl)methyl]-1H-pyrazol-5-ol] | 74.3% | 62.3% | 1230 nM | – | – | –
Oc1c(CCC2CCNCC2)c(C2CC2)nn1-c1nc2cc(Cl)ccc2[nH]1 [Compound I-554, 1-(5-chloro-1H-1,3-benzodiazol-2-yl)-3-cyclopropyl-4-[2-(piperidin-4-yl)ethyl]-1H-pyrazol-5-ol] | 12.2% | 95.0% | 56.2 nM | – | – | inhibition at 1 µM (HIV-1NL4-3; [1]): 12.2%; % Cell Viability (TZM-bl cell line; human): 95.0%; Kd (HIV-1 NefNL4-3; [3]): 0.00315 nM; Kd (HIV-1 NefNL4-3; [4]): 0.00315 nM; T, minutes (residence time) (HIV-1 NefNL4-3; [5]): 3.33E + 06 minutes; Kd (HIV-1 NefNL4-3; [6]): 2130 nM; RU30/RUNef (extent of binding) (HIV-1 NefNL4-3): 3.65E- 02
Oc1c(CCC2CCNCC2)c(-c2ccc(C(F)(F)F)cn2)nn1-c1nc2cc(Br)ccc2[nH]1 [Compound I-555, 1-(5-bromo-1H-1,3-benzodiazol-2-y1)-4-[2-(piperidin-4-yl)ethyl]-3-[5-(trifluoromethyl)pyridin-2-yl]-1H-pyrazol-5-ol] | – | – | – | – | – | HIV-1 Infectivity % Inhibition Norm. to Δ-Nef @ 1 μM (HIV-1NL4-3; Table 1, TZM-bl cells, 1 μM, 48 h, 100% = Nef-defective HIV-1): −118.0%; Percent Viability @ 1 μM (TZM-bl cells) (TZM-bl cell line; Table 1, uninfected TZM-bl cells, Cell Titer Blue): 104.6%; Kd (HIV-1 NefNL4-3; Table 1, 1:1 Langmuir fit where the KD2 cell says '1 to 1 fitting', else 2-site fit, read-out: Nef NL4-3 Binding, SPR 1:1 or 2-site fitting KD1): 875 nM
Oc1c(CCc2ccc(F)cc2)c(CC2CCCNC2)nn1-c1nc2ccccc2[nH]1 (stereo not shown) [Compound I-556, 1-(1H-1,3-benzodiazol-2-yl)-4-[2-(4-fluorophenyl)ethyl]-3-[(piperidin-3-yl)methyl]-1H-pyrazol-5-ol] | 18.1% | 86.1% | 783 nM | – | – | –
Oc1c(CCc2ccc(F)cc2)c(-c2ccc(C(F)(F)F)cn2)nn1-c1cc(C(F)(F)F)n[nH]1 [Compound I-602, 4-[2-(4-fluorophenyl)ethyl]-5′-(trifluoromethyl)-3-[5-(trifluoromethyl)pyridin-2-yl]-2′H-[1,3′-bipyrazol]-5-ol] | – | 97.2% | – | 73.8% | No interaction | –
CS(=O)(=O)c1ccc(-c2nn(-c3cc(C(F)(F)F)n[nH]3)c(O)c2CCc2ccc(F)cc2)cc1 [Compound I-603, 4-[2-(4-fluorophenyl)ethyl]-3-(4-methanesulfonylphenyl)-5′-(trifluoromethyl)-2′H-[1,3′-bipyrazol]-5-ol] | – | 106.0% | 1830 nM | 57.8% | – | inhibition at 1 µM (HIV-1NL4-3; [1]): 57.8%; % Cell Viability (TZM-bl cell line; human): 100%; Kd (HIV-1 NefNL4-3; [3]): 35100 nM; Kd (HIV-1 NefNL4-3; Nef NL4-3 Binding, SPR 1:1 or 2-site fitting KD2, Table 2, 2-site fit, second component): 3600 nM; Kd (HIV-1 NefNL4-3; Nef NL4-3 Binding, SPR 2-state fitting KD, Table 2, 2-step induced-fit model): 58 nM; T, minutes (residence time) (HIV-1 NefNL4-3; [5]): 2.18E + 00 minutes; RU30/RUNef (extent of binding) (HIV-1 NefNL4-3): 1.19E- 02
CS(=O)(=O)c1cccc(-c2nn(-c3cc(C(F)(F)F)n[nH]3)c(O)c2CCC2CCOCC2)c1 [Compound I-608, 3-(3-methanesulfonylphenyl)-4-[2-(oxan-4-yl)ethyl]-5′-(trifluoromethyl)-2′H-[1,3′-bipyrazol]-5-ol] | – | 101.2% | – | 5.3% | No interaction | –
CS(=O)(=O)c1ccc(-c2nn(-c3cc(C(F)(F)F)n[nH]3)c(O)c2CCC2CCOCC2)cc1 [Compound I-611, 3-(4-methanesulfonylphenyl)-4-[2-(oxan-4-yl)ethyl]-5′-(trifluoromethyl)-2′H-[1,3′-bipyrazol]-5-ol] | – | 99.6% | – | 65.7% | No interaction | –
Oc1c(CCc2ccncc2)c(-c2cccc(F)c2)nn1-c1cc(C(F)(F)F)n[nH]1 [Compound I-615, 3-(3-fluorophenyl)-4-[2-(pyridin-4-yl)ethyl]-5′-(trifluoromethyl)-2′H-[1,3′-bipyrazol]-5-ol] | – | 98.9% | – | 47.9% | No interaction | –
O=C(O)c1ccc(CCc2c(-c3ccccc3)nn(-c3cc(C(F)(F)F)n[nH]3)c2O)cc1 [Compound I-618, 4-{2-[5-hydroxy-3-phenyl-5′-(trifluoromethyl)-2′H-[1,3′-bipyrazol]-4-yl]ethyl}benzoic acid] | – | 93.8% | – | 0% | No interaction | –
Oc1c(CCc2ccc(F)cc2)c(-c2ccc(C(F)(F)F)cc2)nn1-c1cc(C2CC2)n[nH]1 [Compound I-619, 5′-cyclopropyl-4-[2-(4-fluorophenyl)ethyl]-3-[4-(trifluoromethyl)phenyl]-2′H-[1,3′-bipyrazol]-5-ol] | – | 105.5% | – | 0% | No interaction | –
Oc1c(CC2CCOCC2)c(C2CCOCC2)nn1-c1cc(C(F)(F)F)n[nH]1 [Compound I-621, 3-(oxan-4-yl)-4-[(oxan-4-yl)methyl]-5′-(trifluoromethyl)-2′H-[1,3′-bipyrazol]-5-ol] | – | 95.3% | – | 42.4% | No interaction | –
Oc1c(CC2CCOCC2)c(C2CC2)nn1-c1cc(C(F)(F)F)n[nH]1 [Compound I-622, 3-cyclopropyl-4-[(oxan-4-yl)methyl]-5′-(trifluoromethyl)-2′H-[1,3′-bipyrazol]-5-ol] | – | 98.5% | – | 4.9% | No interaction | –
Oc1c(CCc2ccc(F)cc2)c(C2CCOCC2)nn1-c1cc(C(F)(F)F)n[nH]1 [Compound I-623, 4-[2-(4-fluorophenyl)ethyl]-3-(oxan-4-yl)-5′-(trifluoromethyl)-2′H-[1,3′-bipyrazol]-5-ol] | – | 100.7% | 221000 nM | 17.4% | – | inhibition at 1 µM (HIV-1NL4-3; [1]): 17.4%; % Cell Viability (TZM-bl cell line; human): 100%; Kd (HIV-1 NefNL4-3; [9]): 221000 nM; T, minutes (residence time) (HIV-1 NefNL4-3; [10]): 2.88E + 00 minutes; RU30/RUNef (extent of binding) (HIV-1 NefNL4-3): 1.67E- 02
CC(=O)N1CCC(c2nn(-c3nc4cc(Cl)ccc4[nH]3)c(O)c2CCC2CCOCC2)CC1 [Compound I-703, 1-{4-[1-(5-chloro-1H-1,3-benzodiazol-2-yl)-5-hydroxy-4-[2-(oxan-4-yl)ethyl]-1H-pyrazol-3-yl]piperidin-1-yl}ethan-1-one] | -8.1% | 99.2% | 1540 nM | – | – | –
CC(=O)N1CCC(c2nn(-c3nc4cc(Cl)ccc4[nH]3)c(O)c2CCn2nccn2)CC1 [Compound I-704, 1-{4-[1-(5-chloro-1H-1,3-benzodiazol-2-yl)-5-hydroxy-4-[2-(2H-1,2,3-triazol-2-yl)ethyl]-1H-pyrazol-3-yl]piperidin-1-yl}ethan-1-one] | 6.6% | 99.4% | 3620 nM | – | – | inhibition at 1 µM (HIV-1NL4-3; [1]): 6.6%; % Cell Viability (TZM-bl cell line; human): 99.4%; Kd (HIV-1 NefNL4-3; [9]): 3620 nM; T, minutes (residence time) (HIV-1 NefNL4-3; [10]): 7.61E + 00 minutes; RU30/RUNef (extent of binding) (HIV-1 NefNL4-3): 1.92E- 03

Source: patent publication US20220380341A1, “INHIBITORS OF HIV-1 NEF FOR THE TREATMENT OF HIV DISEASE” (priority 2018, published 2022)
